Results published in ChEMBL document CHEMBL1126228, “2,3:18,19-dioxidosqualene: synthesis and activity as a potent inhibitor of 2,3-oxidosqualene-lanosterol cyclase in rat liver microsomes” (Bioorg Med Chem Lett, 1992).
pIC50: −log10 of the molar value.

The compounds below were run against T1, Lanosterol synthase (Rattus norvegicus, UniProt P48450) (assay: Compound was evaluated for inhibitory activity against 2,3-oxidosqualene-lanosterol cyclase in rat liver microsomes).
T1 sequence (P48450 whole entry): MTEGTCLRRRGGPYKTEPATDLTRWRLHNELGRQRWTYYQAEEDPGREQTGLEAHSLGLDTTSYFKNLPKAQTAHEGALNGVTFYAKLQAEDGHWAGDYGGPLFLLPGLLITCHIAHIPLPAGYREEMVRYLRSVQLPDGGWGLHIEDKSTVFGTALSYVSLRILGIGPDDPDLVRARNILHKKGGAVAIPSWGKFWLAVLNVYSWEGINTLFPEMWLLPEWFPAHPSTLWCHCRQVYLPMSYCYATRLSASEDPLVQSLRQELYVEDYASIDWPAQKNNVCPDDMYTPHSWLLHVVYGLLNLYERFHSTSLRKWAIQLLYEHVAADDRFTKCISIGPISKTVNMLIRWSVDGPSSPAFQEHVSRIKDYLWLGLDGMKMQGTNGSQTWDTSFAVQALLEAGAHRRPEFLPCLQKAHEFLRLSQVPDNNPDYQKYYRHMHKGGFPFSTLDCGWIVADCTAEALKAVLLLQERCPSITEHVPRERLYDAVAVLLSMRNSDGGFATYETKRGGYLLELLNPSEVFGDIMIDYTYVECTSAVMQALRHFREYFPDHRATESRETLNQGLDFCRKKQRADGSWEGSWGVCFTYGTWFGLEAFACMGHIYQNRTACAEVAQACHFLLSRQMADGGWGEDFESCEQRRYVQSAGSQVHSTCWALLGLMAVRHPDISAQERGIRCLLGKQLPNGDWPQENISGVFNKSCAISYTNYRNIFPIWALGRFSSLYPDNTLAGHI
Set-up: species or system Microsome

Question: `CC(C)=CCCC1(C)OC1CC/C(C)=C/CC/C=C(\C)CC/C=C(\C)CCC1OC1(C)C` (stereo not drawn) was tested. Which pIC50 did it give?
Answer: The pIC50 was 6.96.

Question: How did the pIC50 turn out when `CC(C)=CCC/C(C)=C/CC/C(C)=C/CC/C=C(\C)CCC1OC1(C)CCC=C(C)C` (stereo not drawn) was run?
Answer: The pIC50 was 4.08.

Question: With `C/C(=C\CC/C=C(\C)CC/C=C(\C)CCC1OC1(C)C)CC/C=C(\C)CCC1OC1(C)C` (stereo not drawn) as the compound, how does the pIC50 read?
Answer: The pIC50 was 3.85.
